# Measurements published in EPA's ToxValDB 9.5 (doi:10.2903/j.efsa.2010.1786).
# Columns and labels:
# Anas platyrhynchos = conditions: for LC50: short-term, oral, feed, mortality
# Perdix sp. = conditions: acute; oral; unspecified; mortality
# Colinus virginianus = conditions: acute; oral; diet; mortality
# Phasianus sp. = conditions: acute; oral; unspecified; mortality
# Pimephales promelas = conditions: chronic/long-term; duration: 31 days; growth
# Chalcophaps sp. = conditions: acute; oral; unspecified; mortality
# Encarsia formosa = conditions: not reported; mortality
# Oncorhynchus mykiss = conditions: acute; duration: 96 hours; mortality
# Daphnia magna = conditions: chronic/long-term; duration: 21 days; reproduction
# Apis mellifera = conditions: acute; duration: 48 hours; dermal; mortality
# Lepomis macrochirus = conditions: acute; duration: 96 hours; mortality
# Canidae = conditions: oral, Dog Other
smiles,measurement,setting,value
CCCCc1c(C)nc(NCC)[nH]c1=O [Ethirimol],NOEC,Anas platyrhynchos; reproductive,58 mg/kg-day
same,LC50,Anas platyrhynchos,> 1960 mg/kg-day
same,LD50,Perdix sp.,> 3000 mg/kg-day
same,NOAEL,"Rattus norvegicus; acute, neurology",4000 mg/kg-day
same,NOAEL,"Rattus norvegicus; chronic, duration: 2 years, clinical signs",3.5 mg/kg-day
same,NOEL,"Rattus norvegicus; chronic, mortality",500 mg/kg-day
same,NOAEL,"Rattus norvegicus; reproduction developmental, body weight",5 mg/kg-day
same,LC50,Colinus virginianus,> 3380 mg/kg-day
same,LD50,Phasianus sp.,> 3000 mg/kg-day
CCCCc1c(C)nc(NCC)nc1OS(=O)(=O)N(C)C [Bupirimate],LC50,Anas platyrhynchos,> 2090 mg/kg-day
same,NOEC,Pimephales promelas,0.1 mg/L
same,LD50,Chalcophaps sp.,> 2750 mg/kg-day
same,LEL,Encarsia formosa,750 g/ha
same,LD50,"Rattus norvegicus; acute, oral, mortality",4000 mg/kg-day
same,LC50,Oncorhynchus mykiss,1 µg/mL
same,LC50,Colinus virginianus,> 2580 mg/kg-day
same,NOEC,Daphnia magna,0.56 mg/L
same,LD50,"Coturnix japonica; acute, oral, mortality",> 5000 mg/kg-day
same,NOEC,Coturnix japonica; reproduction developmental,≥ 98 mg/kg-day
same,LD50,Apis mellifera,> 50 µg/piece
same,LC50,"Tagia sp.; acute, duration: 14 days, mortality",> 1000 mg/kg
same,NOEC,Tagia sp.; chronic/long-term,7.3 mg/kg
same,LC50,Lepomis macrochirus,1 µg/mL
same,NOAEL,"Canidae; chronic, duration: 2 years",5 mg/kg-day
same,NOAEL,"Canidae; subchronic, duration: 90 days",15 mg/kg-day
